From patent publication US20250152601A1, “Compositions and Methods for the Treatment of Sexual Dysfunctions” (The Jonathan Hurt Living Trust, priority 2022, published 2025)
Structures can show the parent of a compound that is named as a salt. Where two headings read alike, the source gives them in different places.

Legend:
[1] = test system: tactile sexual function (TSF); experiment: Self-measured tactile sexual function (TSF) scores C, CT, A, B, BM, BS after ingesting treatment substance(s); conditions: for effect on TSF, stated in words: inventor; for TSF when both paroxetine and finasteride were ingested: during use of both drugs; for C, A and B scores when combined with Val and NAC: at 60 minutes;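 on all read-outs here: Self-rated by the single male inventor (about 65 kg) after oral intake, capsules unless noted, on the TSF scale, each one-unit score rise means roughly double the sensation intensity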
From the text: Some treatment substances were in liquid form when orally ingested. For the Working Examples herein all treatment substances were in capsule form unless otherwise noted in the Tables herein. […] It is contemplated that the mg per kilogram dose of treatment substances and/or the time from ingesting one or more treatment substances may vary from person to person for optimum improvement in treating a sexual dysfunction (e.g., an SRSS including reduced TSF or absent TSF). In some instances, it is contemplated that ingesting one treatment substance may be done at a different time than ingesting another treatment substance to optimize the effect in treating a sexual dysfunction.
For a male, the A score is the highest intensity of TSF just before the first muscle contraction of ejaculation, and the B score is the highest intensity of TSF just after the first muscle contraction of ejaculation.

[2] = Non-sexual side effects associated with ingesting treatment substances; conditions: for non-sexual side effect / adverse event: after ingesting the treatment substance
[3] = test system: ejaculation/orgasm; experiment: Ejaculation scores D (strength of the muscle contractions during ejaculation) and DE (ease to achieve ejaculation), incl. FE/FO; format: in vivo, human; conditions: for effect on D/DE scores, stated in words: Examples with the positive cholinergic; for time after ingestion at which the increase in DE score may peak: before 60 minutes; for average D score / average DE score: when not combined with another listed positive cholinergic
Protocol: Variations in TSF and other sexual responses were noticed after ingesting a treatment substance, and additional scores to describe these responses were recorded in some examples. In some examples the C score for TSF was localized only to the head (“glands”) of the penis when one or more C score measurements were taken prior to attempted or achieved ejaculation/orgasm. […] In some examples after ingesting a treatment substance, the speed of B score decrease from the first muscle contraction to the last muscle contraction of ejaculation was recorded as the “BS” score using terms such as “IS” for instantaneous loss of TSF where a B score of 0.0 occurred at or immediately after the first muscle contraction, “FT” for a fast loss of TSF, and “SL” for a slow loss of TSF. In some examples the minimum B score measured at or near the last muscle contraction was recorded as the “BM” score using the same scoring parameters as for the B score. […] In some examples the ease to achieve ejaculation was recorded as the “DE” score, with a score of 1.0 being ejaculation achieved with some difficulty, 2.0 being a typical/normal ease of ejaculation, and a 3.0 being of the ease of ejaculation was promoted. […] When a score (e.g., C, CT, A, B, BM, BS, D, DE) was not recorded or not applicable then “N/A” is listed for that score and that score was not used (no numeric score) for mathematical evaluations in such an occurrence.
Dietary vitamins and nutritional supplements were ingested about 7:00 AM to about 10:30 AM with coffee, and coffee consumption ended by about 12:00 PM or earlier. No food was ingested during the day before measurements as only one meal a day is typically eaten in the evening.
Measurements were made in the morning from about 7:30 AM until about 11:30 AM.
Dietary vitamins and nutritional supplements were ingested about 7:00 AM to about 10:30 AM with coffee, and coffee consumption ended by about 12:00 PM or earlier.
No food, dietary vitamins or nutritional supplements were ingested the day of the measurements until after the measurements were taken.

[4] = test system: sexual function; experiment: Additional sexual effects after ingesting treatment substances (C score different, urination sensitivity, ease to ejaculate); format: in vivo, human; conditions: 3000 mg/day, after about a week
[5] = in ester or salt form, cited from earlier work
[6] = molecular target: mGlu5-R (Homo sapiens, UniProt P41594); conditions: Glu released by Xc- after exchange for Cys2; cited from earlier work
[7] = test system: mGlu(2/3)-R; conditions: rats, striatum; cited from earlier work
[8] = in vivo; cited from earlier work
[9] = test system: tactile sexual function (TSF); experiment: C score at varying time points after ingestion (duration of effect; rise, peak, fall pattern or decline pattern); format: in vivo, human; conditions: C scores at 20 to 60 minutes
From the text: Table 42 records the increases/decreases in C scores over time as a measure of the duration of the effect of ingesting a treatment substance on TSF, for some working examples listed in previous tables. These working examples measured TSF for C scores at varying time points after the first ingestion of a treatment substance and before the measurement of the B score. Negative time scores indicate that the C score measurement occurred prior to ingesting a treatment substance, such as at example T37:82 the […] time is listed as −20 as the measurement for the C score at the C1 time was made 20 minutes before ingesting the treatment substance. In some examples additional rows were used to record C scores (e.g., examples T37:82 and T40:1). The duration of the effect of treatment substance(s) on the C score varied, with some reaching a peak C score before the B score measurement (e.g., see example T37:43), and other still increasing in C score to the B score measurement (e.g., see example T41:8).
Early C score measurements, when available, are shown for 20, 30, 40, and/or 50 minutes. […] Individual combinations of Val and NAC and another treatment substance may vary from the average's rise, peak, fall pattern (e.g., T41:120). […]

[10] = after the first day of ingesting bupropion
[11] = prolonged daily ingestion (D-Asp 3000 mg/day about a week; bupropion per prescription, following months)
[12] = Table 47A, dose in mg per example: Phenibut 450, Homotaurine 50, 150, 200, 250, listed as T38:5
[13] = Table 47A, dose in mg per example: Phenibut 450, Homotaurine 50, 150, 200, 250, listed as T38:18
[14] = Table 47A, dose in mg per example: Phenibut 450, Homotaurine 50, 150, 200, 250
[15] = Table 47A, dose in mg per example: Phenibut 450, Homotaurine 50, 150, 200, 250, beverage and time as in Tables 37, 38, 39
[16] = Table 39B, ingested at times other than 60 minutes before measurements, various beverages
[17] = Table 39C, ingested at times other than 60 minutes before measurements

Chain of mGlu5-R (P41594 21-1212): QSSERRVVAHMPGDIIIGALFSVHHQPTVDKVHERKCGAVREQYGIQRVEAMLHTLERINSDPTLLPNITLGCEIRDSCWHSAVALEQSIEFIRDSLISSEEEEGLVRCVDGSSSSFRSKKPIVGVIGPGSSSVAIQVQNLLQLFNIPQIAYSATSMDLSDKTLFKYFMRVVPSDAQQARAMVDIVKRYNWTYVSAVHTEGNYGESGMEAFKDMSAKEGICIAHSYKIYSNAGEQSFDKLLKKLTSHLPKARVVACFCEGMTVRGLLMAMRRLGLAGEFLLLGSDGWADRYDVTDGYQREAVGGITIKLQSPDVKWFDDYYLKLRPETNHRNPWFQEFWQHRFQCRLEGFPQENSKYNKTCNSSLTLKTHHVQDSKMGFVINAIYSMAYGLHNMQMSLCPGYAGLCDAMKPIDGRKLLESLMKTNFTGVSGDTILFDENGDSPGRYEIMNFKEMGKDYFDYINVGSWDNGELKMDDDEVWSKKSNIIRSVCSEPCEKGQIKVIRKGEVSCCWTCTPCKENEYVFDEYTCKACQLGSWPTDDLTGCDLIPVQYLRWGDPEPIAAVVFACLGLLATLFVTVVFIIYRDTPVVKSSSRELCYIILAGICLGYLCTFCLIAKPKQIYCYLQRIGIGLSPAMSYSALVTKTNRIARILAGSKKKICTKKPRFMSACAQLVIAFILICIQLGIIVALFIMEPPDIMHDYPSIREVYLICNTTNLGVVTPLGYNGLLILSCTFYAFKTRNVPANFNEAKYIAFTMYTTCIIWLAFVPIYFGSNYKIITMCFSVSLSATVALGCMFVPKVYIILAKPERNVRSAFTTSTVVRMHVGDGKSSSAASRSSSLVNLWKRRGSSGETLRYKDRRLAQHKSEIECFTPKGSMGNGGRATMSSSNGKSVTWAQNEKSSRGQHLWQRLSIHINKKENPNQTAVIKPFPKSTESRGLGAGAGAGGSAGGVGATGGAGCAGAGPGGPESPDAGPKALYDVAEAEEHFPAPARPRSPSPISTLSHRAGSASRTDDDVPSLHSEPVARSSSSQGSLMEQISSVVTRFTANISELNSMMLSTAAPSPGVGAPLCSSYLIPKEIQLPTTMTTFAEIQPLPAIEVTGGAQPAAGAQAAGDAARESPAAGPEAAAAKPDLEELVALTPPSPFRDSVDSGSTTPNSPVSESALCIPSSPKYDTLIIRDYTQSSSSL

SMILES: CC(=O)N[C@@H](CCC(N)=O)C(=O)O [AcetylGln, N-Acetyl L-Glutamine]
- effect on TSF, stated in words [1]: relatively weak effect

SMILES: CC(NC(C)(C)C)C(=O)c1cccc(Cl)c1 (centres unmarked) [Bupropion, reference compound]
- A score [1, 10]: about 4
- B score [1, 10]: about 4
- C score [1, 10]: less than 1
- A score [1, 11]: 0
- B score [1, 11]: 0
- BM score [1, 11]: 0
- C score [1, 11]: 0
- non-sexual side effect / adverse event [2]: feeling odd/under the influence of a drug
- D score [3, 10]: 3.0
- DE score [3, 10]: 2.0
- D score [3, 11]: 3.0
- DE score [3, 11]: 2.0

SMILES: N[C@H](CC(=O)O)C(=O)O [D-Asp, D-Aspartic Acid]
- A score [1, 11]: 0
- B score [1, 11]: 0
- BM score [1, 11]: 0
- C score [1, 11]: 0
- non-sexual side effect / adverse event [2]: a small bump from a varicose vein developed on the penis
- physical arousal (erections) [4]: extremely promoted
- D score [3, 11]: 3.0
- DE score [3, 11]: 2.0

SMILES: C[C@@H](O)CC(=O)O [D-Beta-Hydroxybutyrate]
- blood ketone bodies such as D-Beta-Hydroxybutyrate ([5]; 12 grams): 1.0 mM
- blood ketone bodies such as D-Beta-Hydroxybutyrate ([5]; 24 grams): 2.8 mM

SMILES: NCCCS(=O)(=O)O [Example T38: 5, Homotaurine]
- C score ([1]; Table 47A, dose in mg per example: Phenibut 450, Homotaurine 50, 150, 200, 250, beverage and time as in Tables 37, 38, 39, listed as T38:5): 1.8
- A score [1, 12]: 9.5
- B score [1, 12]: 9.5

SMILES: NCCCS(=O)(=O)O [Example T38: 18, Homotaurine]
- C score ([1]; Table 47A, dose in mg per example: Phenibut 450, Homotaurine 50, 150, 200, 250, beverage and time as in Tables 37, 38, 39, listed as T38:18): 1.0
- A score [1, 13]: 9.2
- B score [1, 13]: 9.2

SMILES: CC(C)(C)NC(=O)[C@H]1CC[C@H]2[C@@H]3CC[C@H]4NC(=O)C=C[C@]4(C)[C@H]3CC[C@]12C [Finasteride, reference compound]
- TSF when both paroxetine and finasteride were ingested ([1]; oral, per prescription): complete lack of TSF
- effect on TSF while ingesting the drug ([1]; oral, per prescription, inventor before SRSS): moderately reduced TSF

SMILES: NCCCC(=O)O [GABA, gamma-aminobutyric acid]
- effect on TSF, stated in words [1]: mild improvement in TSF relative to Val

SMILES: COc1ccc2c3c1O[C@H]1C[C@@H](O)C=C[C@@]31CCN(C)C2 [Galantamine HBr, Galantamine Hydrobromide, reference compound]
- effect on D/DE scores, stated in words [3]: generally had improved D/DE scores
- time after ingestion at which the increase in DE score may peak [3]: about 40 minutes
- average D score [3]: about 3.6
- average DE score [3]: 2.4

SMILES: N[C@@H](CCC(=O)O)C(=O)O [Glu, Glutamic Acid]
- Glu level at which the extrasynaptic mGlu5-R becomes activated [6]: 500 µM
- Glu concentration that activated the mGlu(2/3)-R [7]: 0.5 µM

SMILES: C/C=C1\[C@H]2C=C(C)C[C@]1(N)c1ccc(=O)[nH]c1C2 [Huperzine A]
- effect on D/DE scores, stated in words [3]: also had Examples of improved D/DE scores
- time after ingestion at which the increase in DE score may peak [3]: about 40 minutes
- average D score [3]: 3
- average DE score [3]: 1.9

SMILES: CC(=O)N[C@@H](CS)C(=O)O [NAC, N-Acetyl-Cysteine, reference compound]
- effect on TSF, stated in words [1]: no positive effect was noticed on TSF

SMILES: CN[C@H](CC(=O)O)C(=O)O [NMDA, N-Methyl-D-Aspartic Acid, reference compound]
- effect on TSF, stated in words [1]: negative effect on TSF scores

SMILES: NCCCS(=O)(=O)O [T37:56, Homotaurine]
- A score [1, 14]: 7.5
- B score [1, 14]: 7.5
- C score [1, 15]: 1.2

SMILES: NCCCS(=O)(=O)O [T37:57, Homotaurine]
- A score [1, 14]: 9.2
- B score [1, 14]: 9.2
- C score [1, 15]: 1.2

SMILES: NCC(CC(=O)O)c1ccccc1 (centres unmarked) [T39:13, Phenibut HCl]
- A score [1, 16]: 6.5
- B score [1, 16]: 6.5
- C score [1, 16]: 1.5
- A score [1, 17]: 6.5
- B score [1, 17]: 6.5
- C score [1, 17]: 1.5
- A score [1, 14]: 6.5
- B score [1, 14]: 6.5
- C score [1, 15]: 1.5
- Side Effect ([2]; non-sexual side effect after ingesting treatment substance(s)): Felt not normal
- Time of Side Effect ([2]; time after ingesting treatment substance(s), sometimes approximated): 20 to 120 min
- D score (strength of the muscle contractions during ejaculation) [3, 17]: 4.0
- DE score (ease to achieve ejaculation) [3, 17]: 2.0

SMILES: CC(C)[C@H](N)C(=O)O [Val, Valine]
- effect on TSF, stated in words [1]: stronger improvement in TSF than either Leu or Ile

SMILES: Cn1c(=O)c2c(ncn2C)n(C)c1=O [caffeine, Caffeine]
- average plasma half-life [8]: 5 h

SMILES: O=C1c2c(O)cc(O)cc2O[C@H](c2cc(O)c(O)c(O)c2)[C@H]1O [dihydromyricetin, Dihydromyricetin]
- C, A and B scores when combined with Val and NAC [1]: C, A and B scores less than the lowest C, A and B scores of Val and NAC alone
- effect on TSF, stated in words [1]: reduced positive TSF scores
- C score pattern over time when ingested alone [9]: decline pattern

SMILES: COc1ccc([C@@H]2CC(=O)c3c(O)cc(O[C@@H]4O[C@H](CO[C@@H]5O[C@@H](C)[C@H](O)[C@@H](O)[C@H]5O)[C@@H](O)[C@H](O)[C@H]4O)cc3O2)cc1O [hesperidin, Hesperidin]
- C score pattern over time when combined with Val and NAC [9]: rise, peak, fall pattern of C scores and not a high C, A, and/or B scores

SMILES: COc1ccc(-c2oc3c(CC=C(C)C)c(O[C@@H]4O[C@H](CO)[C@@H](O)[C@H](O)[C@H]4O)cc(O)c3c(=O)c2O[C@@H]2O[C@@H](C)[C@H](O)[C@@H](O)[C@H]2O)cc1 [icariin, Icariin]
- C, A and B scores when combined with Val and NAC [1]: C score below a preferred C score and A and B scores that matched the lowest A and B scores of Val and NAC alone

SMILES: Fc1ccc([C@@H]2CCNC[C@H]2COc2ccc3c(c2)OCO3)cc1 [paroxetine, reference compound]
- TSF after discontinuing paroxetine use ([1]; finasteride continued): absence of TSF continued much to most of the time
- TSF when both paroxetine and finasteride were ingested ([1]; oral, per prescription): complete lack of TSF

SMILES: NCC(CC(=O)O)c1ccccc1 (centres unmarked) [phenibut, Phenibut HCl]
- effect on TSF, stated in words [1]: weaker effect on improving A/B TSF scores

SMILES: CCNC(=O)CC[C@H](N)C(=O)O [theanine, Theanine]
- number of Examples with failure to ejaculate ([3]; of 14 Examples having theanine as a treatment substance, 12 failures in all Examples): 3
